# According to US20060074098A1, “Methods of treatment of amyloidosis using ethanolcyclicamine aspartyl protease inhibitors” (priority 2004, published 2006):
# Values joined by “and” are separate entries in the source; they are usually repeats but may differ in a detail not shown here. Equal values may be shown once.
# How the values were obtained:
# [1] = test system: catE / beta-secretase (BACE); assay: CatE/BACE selectivity (ratio of IC50 values); assay type: biochemical; conditions: each value is an average of four experimental runs, multiple values = more than one experiment
# Procedure: (§1) Investigation of potential beta-secretase inhibitors produced compounds with increased selectivity for beta-secretase over other aspartyl proteases such as cathepsin D (catD), cathepsin E (catE), Human Immunodeficiency Viral (HIV) protease, and renin. Selectivity was calculated as a ratio of inhibition (IC50) values in which the inhibition of beta-secretase was compared to the inhibition of other aspartyl proteases.
# The compounds of formula (I) can be selective for beta-secretase versus catE. […] Selectivity is reported as the ratio of IC50(catE):IC50(BACE).
# (§2) In the following examples, each value is an average of four experimental runs and multiple values for one compound indicate that more than one experiment was conducted.
# [2] = test system: catD / beta-secretase (BACE); assay: CatD/BACE selectivity (ratio of IC50 values); assay type: biochemical; conditions: each value is an average of four experimental runs; multiple values = more than one experiment
# Procedure: as §1
# The compounds of formula (I) can be selective for beta-secretase versus catD.
# as §2
Selectivity IC50 catE/IC50 BACE ([1]; listed as 8.3),Selectivity IC50 catD/IC50 BACE [2],Selectivity IC50 catE/IC50 BACE [1],Structure (SMILES)
> 2.9 and > 2.4,> 2.9 and > 2.4,,"CCCC1CCNC(C(O)C(Cc2cc(F)cc(F)c2)NC(C)=O)C1 (stereo not shown) [Example 8.1, N-[1-(3,5-Difluoro-benzyl)-2-hydroxy-2-(4-propylpiperidin-2-yl)-ethyl]-acetamide]"
,>3.3,>3.3,"CC(=O)NC(Cc1cc(F)cc(F)c1)C(O)C1CC2CCCCC2CN1 (stereo not shown) [Example 8.2, N-(1-(decahydroisoquinolin-3-yl)-3-(3,5-difluorophenyl)-1-hydroxypropan-2-yl)acetamide]"
